How the values were obtained:
[1] = biological target: Serine/threonine-protein kinase 25 (Homo sapiens) (UniProt O00506); experiment: Selectivity interaction (KinomeScan (DiscoverX)) EUB0000229b STK25; settings: at 10 µM
[2] = biological target: T1, Serine/threonine-protein kinase 36 (Homo sapiens) (UniProt Q9NRP7); experiment: Selectivity interaction (KinomeScan (DiscoverX)) EUB0000092b STK36; settings: at 10 µM
T1 sequence (whole entry): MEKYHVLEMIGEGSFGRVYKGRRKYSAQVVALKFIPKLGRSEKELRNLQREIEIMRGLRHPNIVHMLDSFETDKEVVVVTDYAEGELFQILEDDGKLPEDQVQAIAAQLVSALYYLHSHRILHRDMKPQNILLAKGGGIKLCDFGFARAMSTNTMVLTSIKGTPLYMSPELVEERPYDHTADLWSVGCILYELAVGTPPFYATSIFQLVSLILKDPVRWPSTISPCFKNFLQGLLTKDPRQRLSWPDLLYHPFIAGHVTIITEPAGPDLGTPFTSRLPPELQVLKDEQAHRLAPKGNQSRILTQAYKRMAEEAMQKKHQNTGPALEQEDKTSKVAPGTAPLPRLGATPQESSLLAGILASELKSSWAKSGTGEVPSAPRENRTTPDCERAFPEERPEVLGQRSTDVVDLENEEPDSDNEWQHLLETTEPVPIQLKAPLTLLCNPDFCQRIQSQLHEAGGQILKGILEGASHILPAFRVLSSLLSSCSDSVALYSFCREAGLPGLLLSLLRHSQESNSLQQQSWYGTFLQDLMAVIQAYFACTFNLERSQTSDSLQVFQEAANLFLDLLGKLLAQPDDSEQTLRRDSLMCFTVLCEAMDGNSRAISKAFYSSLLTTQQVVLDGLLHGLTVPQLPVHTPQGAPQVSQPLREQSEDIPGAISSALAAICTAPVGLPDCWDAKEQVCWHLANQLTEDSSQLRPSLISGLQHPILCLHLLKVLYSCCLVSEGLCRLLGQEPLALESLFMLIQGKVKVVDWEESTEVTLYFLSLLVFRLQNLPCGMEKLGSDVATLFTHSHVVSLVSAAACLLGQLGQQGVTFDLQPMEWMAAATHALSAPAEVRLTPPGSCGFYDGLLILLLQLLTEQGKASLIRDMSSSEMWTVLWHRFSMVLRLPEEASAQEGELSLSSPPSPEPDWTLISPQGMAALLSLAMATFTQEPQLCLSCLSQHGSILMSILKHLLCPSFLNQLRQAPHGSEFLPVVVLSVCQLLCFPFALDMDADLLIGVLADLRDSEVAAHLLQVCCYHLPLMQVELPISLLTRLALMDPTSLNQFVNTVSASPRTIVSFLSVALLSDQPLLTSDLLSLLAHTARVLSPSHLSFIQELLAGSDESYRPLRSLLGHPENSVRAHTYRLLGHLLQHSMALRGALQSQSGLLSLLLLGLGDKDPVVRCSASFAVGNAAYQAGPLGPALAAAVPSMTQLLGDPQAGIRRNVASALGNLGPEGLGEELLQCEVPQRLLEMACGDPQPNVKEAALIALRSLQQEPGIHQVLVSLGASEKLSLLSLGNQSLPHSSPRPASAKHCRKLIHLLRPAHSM

[3] = biological target: Proto-oncogene tyrosine-protein kinase ROS (Homo sapiens) (UniProt P08922); experiment: Selectivity interaction (KinomeScan (DiscoverX)) EUB0000666a ROS1; settings: at 10 µM
Proto-oncogene tyrosine-protein kinase ROS (Homo sapiens), sequence (P08922 whole entry): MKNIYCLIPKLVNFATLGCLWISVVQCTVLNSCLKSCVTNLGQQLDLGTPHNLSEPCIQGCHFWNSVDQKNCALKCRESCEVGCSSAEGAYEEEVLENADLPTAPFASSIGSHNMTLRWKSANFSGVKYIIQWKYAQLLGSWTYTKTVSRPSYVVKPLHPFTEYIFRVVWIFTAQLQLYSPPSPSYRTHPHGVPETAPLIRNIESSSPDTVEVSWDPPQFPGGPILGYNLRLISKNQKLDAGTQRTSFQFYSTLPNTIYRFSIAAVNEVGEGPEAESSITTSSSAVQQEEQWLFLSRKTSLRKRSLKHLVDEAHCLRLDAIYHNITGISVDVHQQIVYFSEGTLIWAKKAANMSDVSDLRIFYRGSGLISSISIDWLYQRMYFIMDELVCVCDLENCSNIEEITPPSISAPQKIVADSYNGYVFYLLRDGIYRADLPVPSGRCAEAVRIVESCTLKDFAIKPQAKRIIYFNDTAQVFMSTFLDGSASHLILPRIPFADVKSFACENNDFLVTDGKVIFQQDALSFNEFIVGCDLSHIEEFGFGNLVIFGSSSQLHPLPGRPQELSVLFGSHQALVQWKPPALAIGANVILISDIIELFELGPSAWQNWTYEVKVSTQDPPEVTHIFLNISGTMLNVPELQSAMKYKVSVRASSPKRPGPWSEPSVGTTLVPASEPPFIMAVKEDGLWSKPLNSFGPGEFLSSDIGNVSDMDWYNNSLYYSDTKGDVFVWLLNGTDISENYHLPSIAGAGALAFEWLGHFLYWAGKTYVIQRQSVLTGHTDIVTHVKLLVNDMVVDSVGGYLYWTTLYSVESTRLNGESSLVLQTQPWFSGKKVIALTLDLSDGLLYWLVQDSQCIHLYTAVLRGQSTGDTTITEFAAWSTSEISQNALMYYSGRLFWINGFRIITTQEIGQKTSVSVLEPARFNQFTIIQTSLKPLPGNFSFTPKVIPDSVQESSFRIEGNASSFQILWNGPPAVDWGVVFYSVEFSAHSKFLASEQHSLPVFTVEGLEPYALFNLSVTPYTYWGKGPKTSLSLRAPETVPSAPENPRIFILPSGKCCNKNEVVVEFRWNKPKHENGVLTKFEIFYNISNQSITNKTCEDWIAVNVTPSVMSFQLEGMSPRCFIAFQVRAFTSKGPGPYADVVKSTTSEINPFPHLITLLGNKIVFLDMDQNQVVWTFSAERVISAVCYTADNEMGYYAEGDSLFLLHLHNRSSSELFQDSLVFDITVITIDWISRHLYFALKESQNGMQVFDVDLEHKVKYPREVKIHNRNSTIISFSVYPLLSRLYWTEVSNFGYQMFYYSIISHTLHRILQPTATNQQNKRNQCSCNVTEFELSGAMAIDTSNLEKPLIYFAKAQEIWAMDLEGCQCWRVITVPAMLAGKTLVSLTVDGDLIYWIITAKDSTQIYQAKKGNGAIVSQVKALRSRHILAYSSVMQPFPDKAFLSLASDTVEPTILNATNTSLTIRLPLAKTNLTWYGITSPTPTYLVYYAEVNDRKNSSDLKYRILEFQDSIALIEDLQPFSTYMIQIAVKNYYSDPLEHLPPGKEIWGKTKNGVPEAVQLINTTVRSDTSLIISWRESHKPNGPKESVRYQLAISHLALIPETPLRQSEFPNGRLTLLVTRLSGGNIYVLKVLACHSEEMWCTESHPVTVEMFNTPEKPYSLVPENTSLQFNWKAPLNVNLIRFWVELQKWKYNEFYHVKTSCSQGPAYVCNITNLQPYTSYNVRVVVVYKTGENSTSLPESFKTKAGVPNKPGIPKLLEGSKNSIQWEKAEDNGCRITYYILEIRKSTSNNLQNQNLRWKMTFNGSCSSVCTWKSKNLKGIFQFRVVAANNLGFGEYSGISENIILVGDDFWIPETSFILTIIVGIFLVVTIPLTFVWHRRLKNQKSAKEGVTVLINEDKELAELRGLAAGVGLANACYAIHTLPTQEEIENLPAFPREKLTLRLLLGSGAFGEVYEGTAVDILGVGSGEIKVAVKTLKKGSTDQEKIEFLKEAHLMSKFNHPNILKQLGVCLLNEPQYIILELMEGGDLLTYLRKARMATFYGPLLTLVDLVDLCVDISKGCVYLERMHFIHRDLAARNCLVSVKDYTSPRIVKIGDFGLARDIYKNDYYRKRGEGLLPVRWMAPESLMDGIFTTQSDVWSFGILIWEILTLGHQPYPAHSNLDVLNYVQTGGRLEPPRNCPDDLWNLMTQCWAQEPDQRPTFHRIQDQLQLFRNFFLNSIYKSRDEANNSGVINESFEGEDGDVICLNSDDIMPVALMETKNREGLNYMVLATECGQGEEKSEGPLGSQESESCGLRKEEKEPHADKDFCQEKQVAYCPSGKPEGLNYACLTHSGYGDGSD

[4] = biological target: Ephrin type-A receptor 2 (Homo sapiens) (UniProt P29317); experiment: Selectivity interaction (Millipore kinase profiler) EUB0000124b EPHA2; settings: at 10 µM
Ephrin type-A receptor 2 (Homo sapiens), sequence (P29317 whole entry): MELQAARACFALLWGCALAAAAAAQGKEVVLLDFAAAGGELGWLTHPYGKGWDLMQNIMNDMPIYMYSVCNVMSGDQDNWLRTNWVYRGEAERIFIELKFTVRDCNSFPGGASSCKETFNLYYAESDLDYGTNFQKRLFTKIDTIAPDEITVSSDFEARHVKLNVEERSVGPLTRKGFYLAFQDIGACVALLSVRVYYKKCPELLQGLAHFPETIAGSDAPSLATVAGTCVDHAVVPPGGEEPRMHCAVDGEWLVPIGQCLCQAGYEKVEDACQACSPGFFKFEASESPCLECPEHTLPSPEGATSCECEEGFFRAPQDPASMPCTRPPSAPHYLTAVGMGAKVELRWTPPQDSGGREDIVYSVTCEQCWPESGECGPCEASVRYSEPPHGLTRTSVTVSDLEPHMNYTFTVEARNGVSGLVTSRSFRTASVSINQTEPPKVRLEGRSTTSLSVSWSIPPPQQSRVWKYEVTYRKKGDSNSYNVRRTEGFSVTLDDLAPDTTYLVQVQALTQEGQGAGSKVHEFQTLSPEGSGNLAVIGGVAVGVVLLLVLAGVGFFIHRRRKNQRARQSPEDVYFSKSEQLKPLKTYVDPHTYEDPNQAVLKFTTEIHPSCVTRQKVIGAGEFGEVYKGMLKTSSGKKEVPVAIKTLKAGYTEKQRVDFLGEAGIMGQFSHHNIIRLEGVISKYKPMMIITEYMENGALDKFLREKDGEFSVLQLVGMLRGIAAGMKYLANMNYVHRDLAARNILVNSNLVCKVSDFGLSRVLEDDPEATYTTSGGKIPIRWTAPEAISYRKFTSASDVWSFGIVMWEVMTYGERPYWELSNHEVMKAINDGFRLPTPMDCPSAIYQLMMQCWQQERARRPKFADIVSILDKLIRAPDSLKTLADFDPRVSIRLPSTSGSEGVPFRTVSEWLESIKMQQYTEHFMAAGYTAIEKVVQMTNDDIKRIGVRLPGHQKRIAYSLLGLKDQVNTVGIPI

[5] = biological target: Glycogen synthase kinase-3 beta (Homo sapiens, UniProt P49841); experiment: Selectivity interaction (KinomeScan (DiscoverX)) EUB0000045b GSK3B
Glycogen synthase kinase-3 beta, sequence (P49841 whole entry, looked up): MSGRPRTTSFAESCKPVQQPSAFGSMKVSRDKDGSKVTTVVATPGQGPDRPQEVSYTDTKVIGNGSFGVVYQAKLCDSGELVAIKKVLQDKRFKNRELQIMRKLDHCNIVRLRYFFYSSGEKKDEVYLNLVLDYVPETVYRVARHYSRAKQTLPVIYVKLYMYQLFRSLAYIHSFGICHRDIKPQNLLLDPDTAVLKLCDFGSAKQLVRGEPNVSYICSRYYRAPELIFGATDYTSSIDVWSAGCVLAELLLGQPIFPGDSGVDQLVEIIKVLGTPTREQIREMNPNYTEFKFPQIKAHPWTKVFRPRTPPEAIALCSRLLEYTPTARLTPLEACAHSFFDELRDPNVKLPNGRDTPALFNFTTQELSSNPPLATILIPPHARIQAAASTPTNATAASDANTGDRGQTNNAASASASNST

[6] = biological target: Tyrosine-protein kinase SYK (Homo sapiens, UniProt P43405); experiment: Selectivity interaction (ActivX KiNativ screen (ex vivo kinase selectivity in human PBMCs)) EUB0001619a SYK; type: cell-based; settings: PBMC, at 1 µM

Serine/threonine-protein kinase 25 (Homo sapiens), sequence (O00506 whole entry, looked up): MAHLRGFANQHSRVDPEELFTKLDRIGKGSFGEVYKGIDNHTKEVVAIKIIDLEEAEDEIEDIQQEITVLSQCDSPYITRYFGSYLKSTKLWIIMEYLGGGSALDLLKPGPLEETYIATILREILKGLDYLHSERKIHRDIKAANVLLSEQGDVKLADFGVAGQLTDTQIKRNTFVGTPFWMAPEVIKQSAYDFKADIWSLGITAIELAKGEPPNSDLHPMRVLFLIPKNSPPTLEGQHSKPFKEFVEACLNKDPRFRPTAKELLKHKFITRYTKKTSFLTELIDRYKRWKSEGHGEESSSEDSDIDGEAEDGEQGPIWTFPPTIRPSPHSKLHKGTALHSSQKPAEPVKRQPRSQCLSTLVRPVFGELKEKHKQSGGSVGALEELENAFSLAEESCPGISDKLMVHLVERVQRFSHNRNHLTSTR

Which % binding [1] does the source give for `COc1cc(N(C)c2ccnc3ccc(C(F)(F)F)cc23)cc(OC)c1OC` here?
Its % binding is 88%.

Which % of control [2] does the source give for `CCC(=O)N1CCN(c2ccc(-n3c(=O)ccc4cnc5ccc(-c6cnc7ccccc7c6)cc5c43)cc2C(F)(F)F)CC1` here?
The % of control was 17%.

How did the % of control [3] turn out when `O=C(NOC[C@H](O)CO)c1ccc(F)c(F)c1Nc1ccc(I)cc1F` was run?
The % of control was 92%.

How did the % of control [4] turn out when `CC(=O)Nc1cccc(-n2c(=O)n(C3CC3)c(=O)c3c(Nc4ccc(I)cc4F)n(C)c(=O)c(C)c32)c1` was run?
The % of control was 93%.

With `C=CC(=O)Nc1cc(-n2c(=O)ccc3cnc4ccc(-c5ccc(NS(C)(=O)=O)cc5)cc4c32)ccc1C` as the molecule, how does the % of control ([5]; at 1 µM) read?
Its % of control is 100%.

What about the % of control ([5]; at 10 µM) of the same molecule?
Its % of control is 77%.

For `N#Cc1cccc(-c2c[nH]c3ncnc(N4CCOCC4)c23)c1`, which % of inhibition [6] is on record?
Its % of inhibition is 6%.

— ChEMBL document CHEMBL5465560, “Selectivity Literature for EUbOPEN Chemogenomic Library” (2024)
